# Assay results: US20060276400A1, “Modulation of cholesteryl ester transfer protein (CETP) activity” (priority 2005, published 2006)
# B1: human CETP: full-length human CETP (SEQ ID NO:7) purified from conditioned media of a huCETP transformed CHO cell line (protein)
# chain: CSKGTSHEAGIVCRITKPALLVLNHETAKVIQTAFQRASYPDITGEKAMMLLGQVKYGLHNIQISHLSIASSQVELVEAKSIDVSIQNVSVVFKGTLKYGYTTAWWLGIDQSIDFEIDSAIDLQINTQLTCDSGRVRTDAPDCYLSFHKLLLHLQGEREPGWIKQLFTNFISFTLKLVLKGQICKEINVISNIMADFVQTRAASILSDGDIGVDISLTGDPVITASYLESHHKGHFIYKNVSEDLPLPTFSPTLLGDSRMLYFWFSERVFHSLAKVAFQDGRLMLSLMGDEFKAVLETWGFNTNQEIFQEVVGGFPSQAQVTVHCLKMPKISCQNKGVVVNSSVMVKFLFPRPDQQHSVAYTFEEDIVTTVQASYSKKKLFLSLLDFQITPKTVSNLTESSSESIQSFLQSMITAVGIPEVMSRLEVVFTALMNSKGVSLFDIINPEIITRDGFLLLQMDFGFPEHLLVDFLQSLS
# modifications: Human; PEPTIDE (1)..(476) Amino aid sequence of full-length mature human CETP protein
# Experiments:
# human CETP = test: ELISA anti-huCETP antibody titers in sera of immunized human CETP transgenic mice; conditions: in vivo; for average anti-huCETP titer: sc
# serum CETP activity = test: Serum CETP activity (fluorescent cholesteryl ester transfer assay) in immunized human CETP transgenic mice; conditions: in vivo
# [1] = tested on: serum HDL-cholesterol (HDLc); set-up: species or system human CETP transgenic mice; conditions: in vivo
# [2] = tested on: endogenous serum CETP activity; test: Change in endogenous serum CETP activity in rabbits immunized with full-length human CETP; conditions: week 12 post-injection vs week -1 pre-injection, 0.2 mg huCETP in CFA, boosters in IFA; for increase in CETP activity following vaccination: Rabbit #1
Molecule,average anti-huCETP titer (human CETP) [OD],effect on serum CETP activity (in words) (serum CETP activity),change in serum HDLc levels in contrast to control group (in words) [1],anti-huCETP titer lower than those of the CETi-1 and CETi-2 groups (human CETP),increase in CETP activity following vaccination [2],increase in CETP activity following vaccination ([2]; listed as whole human CETP) [%],"decrease in CETP activity following vaccination ([2]; Rabbit #11, listed as whole human CETP) [%]"
"CQYIKANSKFIGITEFGFPEHLLVDFLQSLS [CETi-1, reference compound]",~0.750,appeared to elevate CETP activity,reduction,,,,
SKGTSHEAGIVCRITKPALLQYIKANSKFIGITE [CETi-2.1],,,,approx. 30%,,,
CSKGTSHEAGIVCRITKPALLQYIKANSKFIGITE [CETi-2],~0.750,no effect on average,reduction,,,,
B1,,,,,+85%,85,77
